Values after ≈ are worked out from the molar mass of the structure shown.
Columns and labels:
[1] = tested on: Staphylococcus aureus; experiment: Antibacterial activity against Staphylococcus aureus EMRSA17; assay type: functional
[2] = tested on: Enterococcus faecalis; experiment: Antibacterial activity against vancomycin-resistant Enterococcus faecalis; assay type: functional
[3] = tested on: Staphylococcus aureus; experiment: Antibacterial activity against Staphylococcus aureus NCTC12493
[4] = tested on: Micrococcus luteus; experiment: Antibacterial activity against Micrococcus luteus; assay type: functional
[5] = tested on: Enterococcus faecalis; experiment: Antibacterial activity against Enterococcus faecalis NCTC12697; assay type: functional
[6] = tested on: Bacillus cereus; experiment: Antibacterial activity against Bacillus cereus; assay type: functional
[7] = tested on: Bacillus subtilis; experiment: Antibacterial activity against Bacillus subtilis; assay type: functional
[8] = tested on: HaCaT; experiment: Cytotoxicity against human HaCaT cells at 160 ug/ml incubated for 24 hrs by LDH release assay; assay type: cell-based; conditions: dose 160 µg/ml
[9] = tested on: HaCaT; experiment: Cytotoxicity against human HaCaT cells at 160 ug/ml incubated for 24 hrs by LDH release assay (reference value: 23.7 +/- 1.4%); assay type: cell-based; conditions: at 160 µg/mL

Molecule	MIC [1] [µg/mL]	MIC [2] [µg/mL]	MIC [3] [µg/mL]	MIC [4] [µg/mL]	MIC [5] [µg/mL]	MIC [6] [µg/mL]	MIC [7] [µg/mL]	Activity [8]	Activity [9] [%]
O=C1O/C(=C\c2cc(Br)c(O)c(Br)c2)C(c2cccs2)=C1C(=O)c1cc(Br)c(O)c(Br)c1	16 (≈ 22.7 µM)	8 (≈ 11.3 µM)	16 (≈ 22.7 µM)	8 (≈ 11.3 µM)	16 (≈ 22.7 µM)	8 (≈ 11.3 µM)	8 (≈ 11.3 µM)		
Cn1cc(/C=C2\OC(=O)C(C(=O)c3ccc(O)c(Br)c3)=C2c2ccc(O)c(Br)c2)c2ccccc21	8 (≈ 13.4 µM)	8 (≈ 13.4 µM)	2 (≈ 3.36 µM)	2 (≈ 3.36 µM)	16 (≈ 26.9 µM)	2 (≈ 3.36 µM)	4 (≈ 6.72 µM)	Non-Toxic	
O=C1O/C(=C\c2ccc(O)c(Br)c2)C(c2ccc(O)c(Br)c2)=C1C(=O)c1ccc(O)c(Br)c1	8 (≈ 12.6 µM)	32 (≈ 50.2 µM)	8 (≈ 12.6 µM)	8 (≈ 12.6 µM)	16 (≈ 25.1 µM)	8 (≈ 12.6 µM)	16 (≈ 25.1 µM)	Non-Toxic	
O=C1O/C(=C\c2ccc(O)c(Br)c2)C(c2cc(Br)c(O)c(Br)c2)=C1C(=O)c1cc(Br)c(O)c(Br)c1 [CADIOLIDE D]	64 (≈ 80.5 µM)	64 (≈ 80.5 µM)	32 (≈ 40.3 µM)	64 (≈ 80.5 µM)	64 (≈ 80.5 µM)	32 (≈ 40.3 µM)	64 (≈ 80.5 µM)		
O=C1O/C(=C\c2ccco2)C(c2ccc(O)c(Br)c2)=C1C(=O)c1ccc(O)c(Br)c1	64 (≈ 120 µM)	128 (≈ 241 µM)	32 (≈ 60.1 µM)	32 (≈ 60.1 µM)	128 (≈ 241 µM)	32 (≈ 60.1 µM)	32 (≈ 60.1 µM)		
O=C1O/C(=C\c2cccs2)C(c2cc(Br)c(O)c(Br)c2)=C1C(=O)c1cc(Br)c(O)c(Br)c1	256 (≈ 363 µM)	32 (≈ 45.3 µM)	32 (≈ 45.3 µM)	128 (≈ 181 µM)	64 (≈ 90.7 µM)	64 (≈ 90.7 µM)	32 (≈ 45.3 µM)		
CCCN1C(=O)C(C(=O)c2ccco2)=C(c2ccc(O)c(Br)c2)C1=Cc1ccc(O)c(Br)c1 (mixture of isomers)	16	16	8	16	16	4	8		55.7
GENTAMICIN	> 64	8		0.25	8	0.25	0.25		
CN[C@H](CC(C)C)C(=O)N[C@H]1C(=O)N[C@@H](CC(N)=O)C(=O)N[C@H]2C(=O)N[C@H]3C(=O)N[C@H](C(=O)N[C@H](C(=O)O)c4cc(O)cc(O)c4-c4cc3ccc4O)[C@H](O)c3ccc(c(Cl)c3)Oc3cc2cc(c3O[C@@H]2O[C@H](CO)[C@@H](O)[C@H](O)[C@H]2O[C@H]2C[C@](C)(N)[C@H](O)[C@H](C)O2)Oc2ccc(cc2Cl)[C@H]1O [VANCOMYCIN]		> 64		≤ 0.13			0.5 (≈ 0.345 µM)		
O=C1O/C(=C\c2cc(Br)c(O)c(Br)c2)C(c2ccco2)=C1C(=O)c1cc(Br)c(O)c(Br)c1	64 (≈ 92.8 µM)	64 (≈ 92.8 µM)	32 (≈ 46.4 µM)	16 (≈ 23.2 µM)	32 (≈ 46.4 µM)	16 (≈ 23.2 µM)	16 (≈ 23.2 µM)		
O=C1O/C(=C\c2c[nH]c3ccccc23)C(c2ccc(O)c(Br)c2)=C1C(=O)c1ccc(O)c(Br)c1	4 (≈ 6.88 µM)	8 (≈ 13.8 µM)	2 (≈ 3.44 µM)	8 (≈ 13.8 µM)	8 (≈ 13.8 µM)	4 (≈ 6.88 µM)	8 (≈ 13.8 µM)	Non-Toxic	
O=C1O/C(=C\c2ccco2)C(c2cc(Br)c(O)c(Br)c2)=C1C(=O)c1ccco1	128 (≈ 253 µM)	256 (≈ 506 µM)	64 (≈ 126 µM)	256 (≈ 506 µM)	256 (≈ 506 µM)	128 (≈ 253 µM)	256 (≈ 506 µM)		
O=C1O/C(=C\c2cc(Br)c(O)c(Br)c2)C(c2cc(Br)c(O)c(Br)c2)=C1C(=O)c1ccco1	64 (≈ 92.8 µM)	64 (≈ 92.8 µM)	32 (≈ 46.4 µM)	32 (≈ 46.4 µM)	128 (≈ 186 µM)	16 (≈ 23.2 µM)	32 (≈ 46.4 µM)		
O=C1O/C(=C\c2ccco2)C(c2ccco2)=C1C(=O)c1cc(Br)c(O)c(Br)c1	64 (≈ 126 µM)	64 (≈ 126 µM)	16 (≈ 31.6 µM)	32 (≈ 63.2 µM)	64 (≈ 126 µM)	16 (≈ 31.6 µM)	32 (≈ 63.2 µM)		
O=C1O/C(=C\c2ccc(O)c(Br)c2)C(c2ccc(O)c(Br)c2)=C1C(=O)c1cccs1	16 (≈ 29.2 µM)	32 (≈ 58.4 µM)	8 (≈ 14.6 µM)	8 (≈ 14.6 µM)	32 (≈ 58.4 µM)	4 (≈ 7.3 µM)	8 (≈ 14.6 µM)		
O=C1O/C(=C\c2cccs2)C(c2ccc(O)c(Br)c2)=C1C(=O)c1cc(Br)c(O)c(Br)c1	32 (≈ 51 µM)	32 (≈ 51 µM)	8 (≈ 12.8 µM)	32 (≈ 51 µM)	32 (≈ 51 µM)	8 (≈ 12.8 µM)	4 (≈ 6.38 µM)		

Reference: ChEMBL document CHEMBL4665840, “New antibacterial cadiolide analogues active against antibiotic-resistant strains” (Bioorg Med Chem Lett, 2020)
